# Experimental data reported in PubChem BioAssay (NCI).
#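 How tested: cells in 96-well plates exposed to compound for 48 hours at five concentrations. GI50 is the concentration that inhibits growth by half. The concentration for full growth arrest is given as TGI.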
# How the values were obtained:
# Assay in all cases: NCI tumour cell line growth inhibition, 48 h
# [1] = test system: HL-60(TB) leukemia
# [2] = test system: HCT-15 colon
# [3] = test system: RPMI-8226 leukemia
# [4] = test system: HOP-62 NSCLC
# [5] = test system: KM12 colon
# [6] = test system: NCI-H522 lung
# [7] = test system: BT-549 breast
# [8] = test system: CCRF-CEM leukemia
# [9] = test system: HCC-2998 colon
# [10] = test system: PC-3 prostate
# [11] = test system: OVCAR-8 ovarian
# [12] = test system: UACC-62 melanoma
# [13] = test system: NCI-H226 lung
# [14] = test system: SK-MEL-2 melanoma
# [15] = test system: T-47D breast
# [16] = test system: ACHN renal
# [17] = test system: NCI-H460 lung
# [18] = test system: EKVX NSCLC
# [19] = test system: LOX IMVI melanoma
# [20] = test system: 786-0 renal
# [21] = test system: NCI/ADR-RES ovarian
# [22] = test system: HS 578T breast
# [23] = test system: MOLT-4 leukemia
# [24] = test system: OVCAR-3 ovarian
# [25] = test system: M14 melanoma
# [26] = test system: NCI-H23 lung
# [27] = test system: SF-295 CNS
# [28] = test system: OVCAR-4 ovarian
# [29] = test system: UACC-257 melanoma
# [30] = test system: DU-145 prostate
# [31] = test system: SNB-75 CNS
# [32] = test system: SK-MEL-5 melanoma
# [33] = test system: MALME-3M melanoma
# [34] = test system: SK-MEL-28 melanoma
# [35] = test system: SW-620 colon
# [36] = test system: A498 renal
# [37] = test system: HT29 colon
# [38] = test system: A549 NSCLC
# [39] = test system: SK-OV-3 ovarian
# [40] = test system: MDA-MB-435
# [41] = test system: SF-539 CNS
# [42] = test system: HOP-92 NSCLC
# [43] = test system: HCT-116 colon
# [44] = test system: SR leukemia
# [45] = test system: IGROV1 ovarian
# [46] = test system: OVCAR-5 ovarian
# [47] = test system: MDA-MB-231 breast
# [48] = test system: K-562 leukemia
# [49] = test system: UO-31 renal
# [50] = test system: U251 CNS
# [51] = test system: TK-10 renal
# [52] = test system: SNB-19 CNS
# [53] = test system: SN12C renal
# [54] = test system: RXF 393 renal
# [55] = test system: MCF7 breast
# [56] = test system: CAKI-1 renal
# [57] = test system: COLO 205 colon
# [58] = test system: SF-268 CNS
structure (smiles),measurement,setting,value
CCN1CCN(Cc2ccc(NC(=O)c3nc4ccc5[nH]ncc5c4c4c3CCCC4)cc2C(F)(F)F)CC1,GI50,[1],0.983 µM
same,TGI,[1],1.99 µM
same,GI50,[2],0.95 µM
same,TGI,[2],1.96 µM
same,GI50,[3],1.07 µM
same,TGI,[3],2.61 µM
same,GI50,[4],0.815 µM
same,TGI,[4],1.65 µM
same,GI50,[5],0.988 µM
same,TGI,[5],1.94 µM
same,GI50,[6],0.882 µM
same,TGI,[6],1.85 µM
same,GI50,[7],6.33 µM
same,TGI,[7],13 µM
same,GI50,[8],1.15 µM
same,TGI,[8],3.26 µM
same,GI50,[9],0.816 µM
same,TGI,[9],1.59 µM
same,GI50,[10],1.3 µM
same,TGI,[10],4.2 µM
same,GI50,[11],1.01 µM
same,TGI,[11],2.05 µM
same,GI50,[12],0.922 µM
same,TGI,[12],1.88 µM
same,GI50,[13],2.98 µM
same,TGI,[13],13.6 µM
same,GI50,[14],0.85 µM
same,TGI,[14],1.9 µM
same,GI50,[15],0.854 µM
same,TGI,[15],1.92 µM
same,GI50,[16],0.861 µM
same,TGI,[16],1.56 µM
same,GI50,[17],0.935 µM
same,TGI,[17],1.78 µM
same,GI50,[18],2.09 µM
same,TGI,[18],8.81 µM
same,GI50,[19],0.836 µM
same,TGI,[19],1.55 µM
same,GI50,[20],0.886 µM
same,TGI,[20],1.65 µM
same,GI50,[21],1.08 µM
same,TGI,[21],2.82 µM
same,GI50,[22],0.969 µM
same,TGI,[22],2.13 µM
same,GI50,[23],1.01 µM
same,TGI,[23],2.28 µM
same,GI50,[24],0.997 µM
same,TGI,[24],1.92 µM
same,GI50,[25],0.885 µM
same,TGI,[25],1.8 µM
same,GI50,[26],1.76 µM
same,TGI,[26],7.21 µM
same,GI50,[27],0.888 µM
same,TGI,[27],1.8 µM
same,GI50,[28],1.07 µM
same,TGI,[28],2.63 µM
same,GI50,[29],0.938 µM
same,TGI,[29],1.84 µM
same,GI50,[30],1.25 µM
same,TGI,[30],2.98 µM
same,GI50,[31],1.06 µM
same,TGI,[31],7.17 µM
same,GI50,[32],0.903 µM
same,TGI,[32],1.63 µM
same,GI50,[33],0.827 µM
same,TGI,[33],1.59 µM
same,GI50,[34],0.899 µM
same,TGI,[34],1.65 µM
same,GI50,[35],0.969 µM
same,TGI,[35],1.89 µM
same,GI50,[36],6.89 µM
same,TGI,[36],14.4 µM
same,GI50,[37],0.923 µM
same,TGI,[37],1.91 µM
same,GI50,[38],1.32 µM
same,TGI,[38],3.8 µM
same,GI50,[39],7.25 µM
same,TGI,[39],14.2 µM
same,GI50,[40],0.918 µM
same,TGI,[40],1.67 µM
same,GI50,[41],0.87 µM
same,TGI,[41],1.6 µM
same,GI50,[42],1.61 µM
same,TGI,[42],7.65 µM
same,GI50,[43],0.87 µM
same,TGI,[43],1.7 µM
same,GI50,[44],1.19 µM
same,TGI,[44],2.65 µM
same,GI50,[45],0.892 µM
same,TGI,[45],1.72 µM
same,GI50,[46],1.48 µM
same,TGI,[46],5.46 µM
same,GI50,[47],0.879 µM
same,TGI,[47],1.66 µM
same,GI50,[48],0.827 µM
same,TGI,[48],2.12 µM
same,GI50,[49],0.729 µM
same,TGI,[49],1.4 µM
same,GI50,[50],0.883 µM
same,TGI,[50],1.63 µM
same,GI50,[51],1.83 µM
same,TGI,[51],6.79 µM
same,GI50,[52],0.931 µM
same,TGI,[52],2.01 µM
same,GI50,[53],0.865 µM
same,TGI,[53],1.63 µM
same,GI50,[54],0.738 µM
same,TGI,[54],1.43 µM
same,GI50,[55],0.884 µM
same,TGI,[55],1.84 µM
same,GI50,[56],0.976 µM
same,TGI,[56],2.42 µM
same,GI50,[57],0.861 µM
same,TGI,[57],1.68 µM
same,GI50,[58],2.3 µM
same,TGI,[58],9.2 µM
